Source: patent US9302999B2, “Substituted triazoles as herbicides” (E. I. DU PONT DE NEMOURS AND COMPANY, priority 2012, dated 2016)
Read-outs that look alike come from different tables or passages of the source.

Assays:
Format in all cases: in vivo
[1] = tested on: morningglory (Ipomoea spp.); experiment: Test A pre-/postemergence: morningglory; details: Ipomoea, 240 h; for pest or weed control at 125 g/ha: 125 g ai/ha; for pest or weed control at 500 g/ha: 500 g ai/ha
Outline: (§1)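 Compounds, formulated with surfactant in non-phytotoxic solvent, were applied as a directed soil spray preemergence and as postemergence sprays to 2–10 cm, one- to two-leaf seedlings grown in loam soil blended with sand; visual injury, 0–100, assessed ~10 days post-treatment against untreated controls.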

[2] = tested on: foxtail, giant (giant foxtail, Setaria faberii); experiment: Test A pre-/postemergence: foxtail, giant; details: Setaria faberi, 240 h; for pest or weed control at 125 g/ha: 125 g ai/ha; for pest or weed control at 500 g/ha: 500 g ai/ha
Outline: as §1

[3] = tested on: galium (catchweed bedstraw, Galium aparine); experiment: Test C pre-/postemergence: galium
Outline: (§2)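 Visual injury scored 0–100 (100 = complete control) against untreated controls after 13–15 greenhouse days. Surfactant-containing solvent formulations applied either to soil after sowing (loam/sand) or over 1- to 4-leaf plants, 2–18 cm tall.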

[4] = tested on: bromegrass, downy (downy bromegrass, Bromus tectorum); experiment: Test C pre-/postemergence: bromegrass, downy
Outline: as §2

[5] = tested on: blackgrass (Alopecurus myosuroides); experiment: Test C pre-/postemergence: blackgrass
Outline: as §2

[6] = tested on: velvetleaf (Abutilon theophrasti); experiment: Test A pre-/postemergence: velvetleaf; details: Abutilon theophrasti, 240 h; for pest or weed control at 125 g/ha: 125 g ai/ha; for pest or weed control at 500 g/ha: 500 g ai/ha
Outline: as §1

[7] = tested on: nightshade (eastern black nightshade, Solanum ptycanthum); experiment: Test C pre-/postemergence: nightshade; details: Preemergence
Outline: as §2

[8] = tested on: johnsongrass (Sorghum halepense); experiment: Test C pre-/postemergence: johnsongrass
Outline: as §2

[9] = tested on: morningglory (Ipomoea coccinea); experiment: Test C pre-/postemergence: morningglory
Outline: as §2

[10] = tested on: crabgrass, large (large crabgrass, Digitaria sanguinalis); experiment: Test A pre-/postemergence: crabgrass, large; details: Digitaria sanguinalis, 240 h; for pest or weed control at 125 g/ha: 125 g ai/ha; for pest or weed control at 500 g/ha: 500 g ai/ha
Outline: as §1

[11] = Postemergence, 31 g ai/ha, scale 0 to 100 (0 no effect, 100 complete control)
[12] = Postemergence, 62 g ai/ha, scale 0 to 100 (0 no effect, 100 complete control)
[13] = Postemergence, 125 g ai/ha, scale 0 to 100, 0 no effect, 100 complete control
[14] = Postemergence, 250 g ai/ha, scale 0 to 100 (0 no effect, 100 complete control)
[15] = Preemergence, 31 g ai/ha, scale 0 (no effect) to 100 (complete control)
[16] = Preemergence, 62 g ai/ha, scale 0 to 100, 0 no effect, 100 complete control
[17] = Preemergence, 125 g ai/ha, scale 0 to 100, 0 no effect, 100 complete control
[18] = Preemergence, 250 g ai/ha, scale 0 to 100, 0 no effect, 100 complete control
[19] = Postemergence, 250 g ai/ha, scale 0 to 100

## CCOc1nn(-c2ccc(F)cc2)nc1Cc1ccnc(C(F)(F)F)c1 [Compound 196, 4-[[5-ethoxy-2-(4-fluorophenyl)-2H-1,2,3-triazol-4-yl]methyl]-2-(trifluoromethyl)pyridine]
[1]; post-emergence, Postemergence, 0 to 100 scale, 0 is no effect, 100 is complete control, read-out: Plant response rating, Morningglory
  pest or weed control at 125 g/ha: 100%
[1]; post-emergence, Postemergence, 0 to 100 scale, 0 is no effect, 100 is complete control, read-out: Morningglory plant response rating
  pest or weed control at 500 g/ha: 100%
[1]; pre-emergence, Preemergence, 0 to 100 scale where 0 is no effect and 100 is complete control, read-out: Plant response rating, Morningglory
  pest or weed control at 125 g/ha: 60%
[1]; pre-emergence, Preemergence, 0 to 100 scale (0 no effect, 100 complete control), read-out: Plant response rating, Morningglory
  pest or weed control at 500 g/ha: 90%
[2]; post-emergence, Postemergence, 0 to 100 scale, 0 is no effect, 100 is complete control, read-out: Plant response rating, Foxtail, Giant
  pest or weed control at 125 g/ha: 90%
[2]; post-emergence, Postemergence, 0 to 100 scale, 0 is no effect, 100 is complete control, read-out: Foxtail, Giant plant response rating
  pest or weed control at 500 g/ha: 90%
[2]; pre-emergence, Preemergence, 0 to 100 scale where 0 is no effect and 100 is complete control, read-out: Plant response rating, Foxtail, Giant
  pest or weed control at 125 g/ha: 100%
[2]; pre-emergence, Preemergence, 0 to 100 scale (0 no effect, 100 complete control), read-out: Plant response rating, Foxtail, Giant
  pest or weed control at 500 g/ha: 100%
[3]; [11]
  Plant response rating, Galium: 80
[3]; [12]
  Plant response rating, Galium: 85
[3]; [13]
  Plant response rating, Galium: 90
[3]; [14]
  Plant response rating, Galium: 95
[3]; [15]
  Plant response rating, Galium: 85
[3]; [16]
  Plant response rating, Galium: 95
[3]; [17]
  Plant response rating, Galium: 98
[3]; [18]
  Plant response rating, Galium: 100
[4]; [11]
  Plant response rating, Bromegrass, Downy: 50
[4]; [12]
  Plant response rating, Bromegrass, Downy: 50
[4]; [13]
  Plant response rating, Bromegrass, Downy: 70
[4]; [19]
  Plant response rating, Bromegrass, Downy: 80
[4]; [15]
  Plant response rating, Bromegrass, Downy: 60
[4]; [16]
  Plant response rating, Bromegrass, Downy: 95
[4]; [17]
  Plant response rating, Bromegrass, Downy: 100
[4]; [18]
  Plant response rating, Bromegrass, Downy: 100
[5]; [11]
  Plant response rating, Blackgrass: 70
[5]; [12]
  Plant response rating, Blackgrass: 80
[5]; [13]
  Plant response rating, Blackgrass: 80
[5]; [19]
  Plant response rating, Blackgrass: 80
[5]; [15]
  Plant response rating, Blackgrass: 90
[5]; [16]
  Plant response rating, Blackgrass: 90
[5]; [17]
  Plant response rating, Blackgrass: 90
[5]; [18]
  Plant response rating, Blackgrass: 90
[6]; post-emergence, Postemergence, 0 to 100 scale, 0 is no effect, 100 is complete control, read-out: Plant response rating, Velvetleaf
  pest or weed control at 125 g/ha: 100%
[6]; post-emergence, Postemergence, 0 to 100 scale, 0 is no effect, 100 is complete control, read-out: Velvetleaf plant response rating
  pest or weed control at 500 g/ha: 100%
[6]; pre-emergence, Preemergence, 0 to 100 scale where 0 is no effect and 100 is complete control, read-out: Plant response rating, Velvetleaf
  pest or weed control at 125 g/ha: 80%
[6]; pre-emergence, Preemergence, 0 to 100 scale (0 no effect, 100 complete control), read-out: Plant response rating, Velvetleaf
  pest or weed control at 500 g/ha: 100%
[7]; 31 g ai/ha, scale 0 (no effect) to 100 (complete control)
  Plant response rating, Nightshade: 100
[7]; 62 g ai/ha, scale 0 to 100, 0 no effect, 100 complete control
  Plant response rating, Nightshade: 100
[7]; 125 g ai/ha, scale 0 to 100, 0 no effect, 100 complete control
  Plant response rating, Nightshade: 100
[7]; 250 g ai/ha, scale 0 to 100, 0 no effect, 100 complete control
  Plant response rating, Nightshade: 100
[8]; [11]
  Plant response rating, Johnsongrass: 80
[8]; [12]
  Plant response rating, Johnsongrass: 90
[8]; [13]
  Plant response rating, Johnsongrass: 90
[8]; [14]
  Plant response rating, Johnsongrass: 95
[8]; [15]
  Plant response rating, Johnsongrass: 98
[8]; [16]
  Plant response rating, Johnsongrass: 100
[8]; [18]
  Plant response rating, Johnsongrass: 100
[9]; [11]
  Plant response rating, Morningglory: 75
[9]; [12]
  Plant response rating, Morningglory: 75
[9]; [13]
  Plant response rating, Morningglory: 75
[9]; [14]
  Plant response rating, Morningglory: 75
[9]; [15]
  Plant response rating, Morningglory: 40
[9]; [16]
  Plant response rating, Morningglory: 85
[9]; [17]
  Plant response rating, Morningglory: 100
[9]; [18]
  Plant response rating, Morningglory: 100
[10]; post-emergence, Postemergence, 0 to 100 scale, 0 is no effect, 100 is complete control, read-out: Plant response rating, Crabgrass, Large
  pest or weed control at 125 g/ha: 90%
[10]; post-emergence, Postemergence, 0 to 100 scale, 0 is no effect, 100 is complete control, read-out: Crabgrass, Large plant response rating
  pest or weed control at 500 g/ha: 90%
[10]; pre-emergence, Preemergence, 0 to 100 scale where 0 is no effect and 100 is complete control, read-out: Plant response rating, Crabgrass, Large
  pest or weed control at 125 g/ha: 100%
[10]; pre-emergence, Preemergence, 0 to 100 scale (0 no effect, 100 complete control), read-out: Plant response rating, Crabgrass, Large
  pest or weed control at 500 g/ha: 100%
